# Reference: patent publication US20210393745A1, “OLIGOMER EXTENDED INSULIN-FC CONJUGATES AND THEIR MEDICAL USE” (Novo Nordisk A/S, priority 2018, published 2021)
# What was measured:
# [1] = biological target: T1, membrane-associated human IR-A (Homo sapiens, UniProt P06213); test: Insulin receptor affinity on membrane associated receptors (SPA), IR-A; format: binding; conditions: relative to human insulin
# T1 construct: expressed in transfected cells; host or cells: BHK cells, pZem219B vector, plasma membrane preparation
# T1 sequence (P06213 28-1370 isoform P06213-2 limits assumed): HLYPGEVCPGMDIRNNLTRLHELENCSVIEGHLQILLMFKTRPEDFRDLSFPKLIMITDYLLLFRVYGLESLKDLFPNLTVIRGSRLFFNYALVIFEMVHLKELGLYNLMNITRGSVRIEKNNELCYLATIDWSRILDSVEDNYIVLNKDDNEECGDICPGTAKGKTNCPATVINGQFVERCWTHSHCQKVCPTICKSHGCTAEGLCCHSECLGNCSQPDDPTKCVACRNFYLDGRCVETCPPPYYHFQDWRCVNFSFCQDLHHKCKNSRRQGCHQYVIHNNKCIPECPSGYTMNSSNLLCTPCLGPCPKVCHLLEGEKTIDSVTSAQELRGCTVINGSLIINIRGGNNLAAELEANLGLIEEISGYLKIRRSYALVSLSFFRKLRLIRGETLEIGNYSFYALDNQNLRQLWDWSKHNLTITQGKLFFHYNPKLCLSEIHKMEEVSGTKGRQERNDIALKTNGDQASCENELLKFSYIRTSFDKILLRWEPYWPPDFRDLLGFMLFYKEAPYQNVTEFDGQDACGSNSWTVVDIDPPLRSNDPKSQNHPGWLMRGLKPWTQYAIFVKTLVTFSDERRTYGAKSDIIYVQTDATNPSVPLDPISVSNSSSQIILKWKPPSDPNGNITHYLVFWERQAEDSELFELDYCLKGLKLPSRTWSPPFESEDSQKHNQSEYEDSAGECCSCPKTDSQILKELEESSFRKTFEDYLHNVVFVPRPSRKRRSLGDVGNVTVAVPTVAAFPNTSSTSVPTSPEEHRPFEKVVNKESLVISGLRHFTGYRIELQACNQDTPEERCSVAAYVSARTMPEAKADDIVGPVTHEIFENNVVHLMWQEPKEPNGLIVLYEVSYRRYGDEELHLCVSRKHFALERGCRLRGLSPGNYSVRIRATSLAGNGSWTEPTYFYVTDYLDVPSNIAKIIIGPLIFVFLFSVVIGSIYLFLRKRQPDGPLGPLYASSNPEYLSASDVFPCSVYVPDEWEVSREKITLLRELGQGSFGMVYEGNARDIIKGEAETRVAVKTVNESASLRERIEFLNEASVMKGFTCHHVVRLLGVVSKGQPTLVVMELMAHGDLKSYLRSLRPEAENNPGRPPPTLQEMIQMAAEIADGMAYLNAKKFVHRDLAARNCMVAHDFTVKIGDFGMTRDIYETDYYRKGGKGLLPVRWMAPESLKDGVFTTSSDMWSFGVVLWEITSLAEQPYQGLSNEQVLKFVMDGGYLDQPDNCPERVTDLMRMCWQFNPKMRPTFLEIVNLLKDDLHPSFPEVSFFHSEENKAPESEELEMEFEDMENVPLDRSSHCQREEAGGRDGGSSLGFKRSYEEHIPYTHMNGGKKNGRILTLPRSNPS
# T1 sequence (P06213 763-1382 partner limits assumed): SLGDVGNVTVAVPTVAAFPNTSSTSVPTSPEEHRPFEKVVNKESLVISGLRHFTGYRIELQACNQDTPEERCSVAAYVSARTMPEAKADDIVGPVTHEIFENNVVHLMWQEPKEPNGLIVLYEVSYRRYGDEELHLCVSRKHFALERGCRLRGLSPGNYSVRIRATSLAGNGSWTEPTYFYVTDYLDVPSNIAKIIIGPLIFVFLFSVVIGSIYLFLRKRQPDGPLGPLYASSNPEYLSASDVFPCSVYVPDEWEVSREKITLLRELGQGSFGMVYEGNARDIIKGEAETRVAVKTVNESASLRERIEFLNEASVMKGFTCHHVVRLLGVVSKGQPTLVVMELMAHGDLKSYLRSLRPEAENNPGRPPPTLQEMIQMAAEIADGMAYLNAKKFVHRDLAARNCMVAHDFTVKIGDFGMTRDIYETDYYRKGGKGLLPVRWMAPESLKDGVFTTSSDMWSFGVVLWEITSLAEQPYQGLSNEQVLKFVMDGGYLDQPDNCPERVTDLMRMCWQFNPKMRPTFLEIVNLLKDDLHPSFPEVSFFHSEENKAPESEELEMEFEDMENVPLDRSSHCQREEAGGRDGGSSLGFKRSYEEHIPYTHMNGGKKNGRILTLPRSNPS
# Procedure: (§1) Membrane-associated human IR and IGF-1R are purified from BHK cells stably transfected with the pZem219B vector containing either the human IR-A, IR-B or IGF-IR insert. BHK cells are harvested and homogenized in ice-cold buffer (25 mM HEPES pH 7.4, 25 mM CaCl2 and 1 mM MgCl2, 250 mg/L bacitracin, 0.1 mM Pefablock). The homogenates are layered on a 41% (w/v) sucrose cushion and centrifuged for 75 minutes at 95000 g at 4° C. The plasma membranes are collected, diluted 1:5 with buffer (as above) and centrifuged again for 45 minutes at 40000 g at 4° C. The pellets are resuspended in a minimal volume of buffer and drawn through a needle (size 23) three times before storage at −80° C. until usage. The relative binding affinity for either of the membrane-associated human IR-A, IR-B or IGF-1R is determined by competition binding in a SPA setup. IR assays are performed in duplicate in 96-well OptiPlates (Perkin-Elmer Life Sciences). Membrane protein is incubated with gentle agitation for 150 minutes at 25° C. with 50 pM [^125IA14Y]-human insulin in a total volume of […] assay buffer (50 mM HEPES, 150 mM NaCl, 5 mM MgSO4, 0.01% Triton X-100, 0.1% (w/v) HSA (Sigma A1887), Complete EDTA-free protease inhibitors), 50 μg of wheat germ agglutinate (WGA)-coated PVT microspheres (GE Healthcare) and increasing concentrations of ligand. Assays are terminated by centrifugation of the plate at 2000 rpm for 2 minutes and bound radioactivity quantified by counting on a TopCount NXT (Perkin-Elmer Life Sciences).
# (§2) IGF-1R assays are conducted essentially as for the IR binding assays except that membrane-associated IGF-1R and 50 pM [^125I-Tyr31]-human IGF-1 were employed.
# [2] = biological target: T2, membrane-associated human IR-B (Homo sapiens, UniProt P06213); test: Insulin receptor affinity on membrane associated receptors (SPA), IR-B; format: binding; conditions: relative to human insulin
# T2 construct: expressed in transfected cells; host or cells: BHK cells, pZem219B vector, plasma membrane preparation
# T2 sequence (P06213 28-758 limits assumed): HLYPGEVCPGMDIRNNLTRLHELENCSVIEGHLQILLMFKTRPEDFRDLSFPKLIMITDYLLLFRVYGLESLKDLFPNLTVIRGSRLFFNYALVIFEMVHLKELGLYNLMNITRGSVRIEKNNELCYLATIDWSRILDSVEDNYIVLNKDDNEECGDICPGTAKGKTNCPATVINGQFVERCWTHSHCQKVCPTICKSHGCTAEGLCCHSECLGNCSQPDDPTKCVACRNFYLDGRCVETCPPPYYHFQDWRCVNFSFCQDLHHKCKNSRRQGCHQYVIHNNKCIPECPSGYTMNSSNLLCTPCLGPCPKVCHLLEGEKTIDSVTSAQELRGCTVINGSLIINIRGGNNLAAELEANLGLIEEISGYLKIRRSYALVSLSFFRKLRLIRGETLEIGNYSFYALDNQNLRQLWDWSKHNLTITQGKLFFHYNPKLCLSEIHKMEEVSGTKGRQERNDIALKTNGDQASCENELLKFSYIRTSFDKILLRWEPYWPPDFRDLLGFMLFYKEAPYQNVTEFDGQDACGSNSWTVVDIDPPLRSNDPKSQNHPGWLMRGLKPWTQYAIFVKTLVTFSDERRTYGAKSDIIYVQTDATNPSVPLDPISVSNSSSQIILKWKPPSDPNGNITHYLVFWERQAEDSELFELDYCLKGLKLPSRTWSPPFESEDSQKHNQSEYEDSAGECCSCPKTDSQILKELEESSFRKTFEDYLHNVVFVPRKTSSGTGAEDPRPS
# T2 sequence (P06213 763-1382 partner limits assumed): as the sequence (P06213 763-1382 partner limits assumed) above
# Procedure: as §1, §2
# [3] = biological target: T3, membrane-associated human IGF-1R (Homo sapiens, UniProt P08069); test: IGF-1 receptor affinity on membrane associated receptors (SPA); format: binding; conditions: membrane-associated IGF-1R, relative to human insulin
# T3 construct: expressed in transfected cells; host or cells: BHK cells, pZem219B vector, plasma membrane preparation
# T3 sequence (P08069 31-736 limits assumed): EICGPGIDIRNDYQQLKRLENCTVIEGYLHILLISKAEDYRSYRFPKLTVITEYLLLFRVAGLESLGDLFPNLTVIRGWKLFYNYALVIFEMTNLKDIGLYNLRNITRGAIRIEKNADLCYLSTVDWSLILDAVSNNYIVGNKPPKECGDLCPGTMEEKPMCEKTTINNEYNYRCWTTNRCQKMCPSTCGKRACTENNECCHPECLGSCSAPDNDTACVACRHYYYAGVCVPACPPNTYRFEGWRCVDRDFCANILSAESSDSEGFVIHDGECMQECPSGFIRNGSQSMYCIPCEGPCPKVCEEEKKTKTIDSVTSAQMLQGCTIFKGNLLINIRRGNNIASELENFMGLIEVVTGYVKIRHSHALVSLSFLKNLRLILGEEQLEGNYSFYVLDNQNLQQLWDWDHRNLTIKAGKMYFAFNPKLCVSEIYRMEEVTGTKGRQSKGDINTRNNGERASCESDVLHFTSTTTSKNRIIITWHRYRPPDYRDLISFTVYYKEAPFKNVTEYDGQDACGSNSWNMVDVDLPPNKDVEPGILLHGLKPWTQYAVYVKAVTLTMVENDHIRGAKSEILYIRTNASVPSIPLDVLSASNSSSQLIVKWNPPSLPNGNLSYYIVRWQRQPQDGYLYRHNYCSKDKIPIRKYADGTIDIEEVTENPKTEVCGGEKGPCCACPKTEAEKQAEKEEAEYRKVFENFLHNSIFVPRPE
# T3 sequence (P08069 741-1367 partner limits assumed): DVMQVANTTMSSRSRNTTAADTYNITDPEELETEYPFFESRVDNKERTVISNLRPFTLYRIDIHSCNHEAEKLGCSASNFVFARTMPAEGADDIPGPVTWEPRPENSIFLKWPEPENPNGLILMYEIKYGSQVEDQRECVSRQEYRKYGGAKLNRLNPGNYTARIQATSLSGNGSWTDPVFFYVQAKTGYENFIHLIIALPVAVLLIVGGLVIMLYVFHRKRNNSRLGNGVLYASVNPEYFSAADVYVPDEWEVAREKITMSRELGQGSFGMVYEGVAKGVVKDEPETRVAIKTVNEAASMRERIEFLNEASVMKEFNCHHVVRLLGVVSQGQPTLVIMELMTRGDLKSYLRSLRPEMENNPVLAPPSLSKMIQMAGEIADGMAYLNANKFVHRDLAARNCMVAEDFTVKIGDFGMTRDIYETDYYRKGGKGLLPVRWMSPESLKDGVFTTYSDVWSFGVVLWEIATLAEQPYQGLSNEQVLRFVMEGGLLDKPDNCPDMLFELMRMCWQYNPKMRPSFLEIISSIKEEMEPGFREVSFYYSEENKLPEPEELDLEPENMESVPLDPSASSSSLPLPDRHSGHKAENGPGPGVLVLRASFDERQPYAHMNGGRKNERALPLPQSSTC
# Procedure: as §1, §2
# primary rat adipocytes = test: Lipogenesis in rat adipocytes; format: cell-based; conditions: relative to human insulin
# Procedure: As a measure of in vitro potency of the insulin conjugatess of the invention, lipogenesis can be used. Primary rat adipocytes are isolated from the epididymale fat pads and incubated with 3H-glucose in buffer containing e.g. 0.1% fat free HSA and either standard (human insulin, HI) or insulin conjugates of the invention. The labelled glucose is converted into extractable lipids in a dose dependent way, resulting in full dose response curves. The result is expressed as relative potency (%) with 95% confidence limits of insulin of the invention compared to standard (HI).
# [4] = In vivo PK after s.c. dosing, normal rats; set-up: species or system Sprague-Dawley rat; conditions: s.c. 30 nmol/kg, mean value
# Procedure: (§3) Insulin-Fc conjugates were tested in vivo by subcutaneous (s.c.) administration to normal and streptozotocin (STZ) treated male Sprague-Dawley (SD) rats.
# (§4) The rats were dosed s.c. in the neck region with a dose of 30 nmol/kg of the insulin-Fc conjugates. Blood samples for blood glucose and plasma insulin analysis were collected from the tongue vein up to 10 days post dosing. The insulin-Fc concentrations were measured by immuno-assay (LLOQ=1000 pM) and the resulting half-life values after s.c. dosing are shown in Table 4. The PK profiles for normal rats are shown in FIG. 3 and for streptozotocin treated rats in FIG. 6. Blood glucose (BG) was measured using Biosen S Line (EKF) and the BG and baseline corrected BG profiles for normal rats are shown in FIGS. 1 and 2 and for streptozotocin treated rats in FIGS. 4 and 5 respectively.
# [5] = In vivo PK after s.c. dosing, streptozotocin treated rats; set-up: species or system Sprague-Dawley rat; conditions: s.c. 30 nmol/kg, mean value
# Procedure: as §3, §4
# [6] = system: normal Sprague-Dawley rats; test: In vivo PD, blood glucose lowering in normal rats; set-up: species or system Sprague-Dawley rat; conditions: s.c. 30 nmol/kg, baseline corrected BG up to 10 days, difference from vehicle, mean
# Procedure: as §3, §4
# [7] = system: streptozotocin treated Sprague-Dawley rats; test: In vivo PD, blood glucose lowering in streptozotocin treated rats; set-up: species or system Sprague-Dawley rat; conditions: s.c. 30 nmol/kg, baseline corrected BG up to 10 days, difference from vehicle, mean
# Procedure: as §3, §4
# [8] = Stability study: purity by anionic exchange chromatography; format: physicochemical; conditions: purity %(5° C.) − purity %(30° C.), 30 μM, pH 7.4
# Procedure: Samples for stability studies were prepared by weighing out 8-10 mg freeze-dried material. The freeze-dried material was solubilized to […] in a premade solution A (5 mM phophate (pH 7.4), 140 mM NaCl and 70 ppm polysorbate 20). Protein concentration was determined using absorbance at 280 nm using a Nanodrop 2000 (Thermo Fisher Scientific Inc.) and theoretical extinction coefficients. Dilution into solution A was done to reach a final concentration of 30 μM.
# Anionic exchange chromatography was performed on an Ultra-Performance Liquid Chromatography system (Waters Acquity H-Class) equipped with a fluorescence detector (Waters Acquity FLR Detector). A Bio SAX column with dimensions 50×4.6 mm from Agilent, kept at 30° C., was used in gradient elution mode. Mobile phase A was 5/95 (v/v), acetonitrile/water with 25 mM BIS-TRIS propane, pH 7.3 and mobile phase B was 5/95 (v/v), acetonitrile/water with 25 mM BIS-TRIS propane and 350 mM NaCl, pH 7.3. Injection volume was 3 μL. The flow rate was kept at 0.5 mL/min with a linear gradient from 10 to 47% B in 3 min followed by a linear gradient from 47 to 55% B in 30 min. Peaks were detected with an emission wavelength of […] and data processing is performed with the EMPOWER 3 software from Waters. Samples were analysed for purity as percent API in relation to all other species.
# Reported as Δ purity %=purity %(5° C.)−purity % (30° C.).
# Stability of Fc-insulin analogues was evaluated by comparing purity from anion exchange chromatography and formation of high molecular weight products (HMWP) at 5° C. (control) versus 30° C. (heat induced stress). […] The amount of HMWP was decreased by 0.5-2% in the stressed sample versus the control, i.e. some aggregated material has disassociated during incubation at 30° C.
# hFcRn ectodomain = biological target: T4, hFcRn ectodomain (Homo sapiens, UniProt P55899); test: SPR analysis of the binding of hFcRn ECD; conditions: pH 6.0, 25° C., steady-state fitting; read-out: Kn (μM), binding of hFcRn ECD
# T4 construct: the hFcRn ectodomain diluted at 4000 nM with 2-fold serial dilutions was injected
# T4 sequence (P55899 24-297 limits assumed): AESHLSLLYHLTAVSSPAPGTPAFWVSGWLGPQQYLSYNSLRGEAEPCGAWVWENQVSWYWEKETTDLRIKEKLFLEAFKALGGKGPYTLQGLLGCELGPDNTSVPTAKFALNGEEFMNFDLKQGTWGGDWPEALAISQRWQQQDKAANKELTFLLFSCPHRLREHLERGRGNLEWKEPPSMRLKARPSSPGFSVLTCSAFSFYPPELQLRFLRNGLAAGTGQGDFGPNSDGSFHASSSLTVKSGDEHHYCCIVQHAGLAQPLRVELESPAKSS
# T4 sequence (P61769 21-119 partner): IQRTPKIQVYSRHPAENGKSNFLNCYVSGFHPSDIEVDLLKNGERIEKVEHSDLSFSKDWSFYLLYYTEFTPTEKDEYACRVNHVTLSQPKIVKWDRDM
# Procedure: First, the three Insulin-Fc samples diluted at 10 ug/ml and the wild-type hIgG4 Fc (produced in HEK293 cells, i.e. glycosylated) diluted at 30 ug/ml in 10 mM sodium acetate (pH 4.5) (GE Healthcare, catalogue #BR100350) were immobilized on a CMD50L sensor chip (XanTec Bioanalytics GmbH) at spot 2 or 4 at 70-90 RU in each used flow cell via amine coupling with 1×HBS-EP+ (pH 7.4) (GE Healthcare, catalogue #BR-1006-69) used as the running buffer. The wild-type hIgG4 Fc was used as the control sample. In each used flow cell, spots 2, 3 and 4 were activated by 100 mM N-hydroxysuccinimide (NHS) and 400 mM N-ethyl-N′-dimethylaminopropyl carbodiimide hydrochloride (EDC) mixed at equal volume before the immobilization and blocked by 1 M ethanolamine hydrochloride-NaOH (pH 8.5) after the immobilization. NHS, EDC and ethanolamine were obtained from the Amine Coupling Kit, type 2 (GE Healthcare, catalogue #BR100633).
# Next, the hFcRn ectodomain diluted at 4000 nM with 2-fold serial dilutions was injected through each used flow cell for 60 sec to allow for binding of the hFcRn ectodomain to the Insulin-Fc conjugates and wild-type hIgG4 Fc samples immobilized on the sensor chip, followed by dissociation for 180 sec. 1×PBS-EP+ (pH 6.0) was used as the dilution buffer for the hFcRn ectodomain and the running buffer in each binding cycle at the flow rate of 30 ul/min. After each binding cycle, the sensor chip was regenerated with a 60 sec injection of 1×PBS-EP+ (pH 7.4) at the flow rate of 30 ul/min. The 1×PBS-EP+ (pH 7.4) buffer was prepared by diluting 0.5 M EDTA (pH 8.0) (Invitrogen, catalogue #15575038) at 3 mM into 1×PBS-P+ (GE Healthcare, catalogue #28995084). The 1×PBS-EP+ (pH 6.0) buffer was prepared by adjusting the pH of the 1×PBS-EP+ buffer from 7.4 to 6.0 using ˜10 M HCl. The affinities (equilibrium dissociation constants, KD) were determined via steady-state fitting of the binding curves using the 1:1 binding model in Biacore 4000 Evaluation Software 1.0 (GE Healthcare).
substance,measurement,setting,value
"(A14E, A21G, A22(GQEP)11, A66G, A67Q, A68E, A69K^, A70P, B16E, B25H, B29R, desB30 human insulin)/(226A, 227G, 228P, 234A, 235K, 297E, 315Q, 384Q, des447 hIgG4-Fc(226-447))3,5-bis[(2-acetyl)amino]benzoyl Conjugate [Example 5.3]",hIR-A mem Rel. aff. (%),[1],0.66%
same,hIR-B mem Rel. aff. (%),[2],0.59%
same,IGF1R mem Rel. aff. (%),[3],0.29%
same,Lipogenesis Rel. pot. (%),primary rat adipocytes,0.64%
same,"PK normal rat [T1/2, s.c. (h)]",[4],48 h
same,"PK STZ rat [T1/2, s.c. (h)]",[5],50 h
same,AOCBG normal rat,[6],248 mM·h
same,AOCBG STZ rat,[7],2771 mM·h
same,Δ purity,[8],4.3%
same,Kd,hFcRn ectodomain,1.5 µM
